What was measured:
[1] = test system: Rat; assay: concentration in plasma after dosing; conditions: 0.2 h; dosed: 2-Methyltetrahydrofuran; 40 mg/kg; iv; Male; Harlan Sprague Dawley
[2] = test system: Rat; assay: concentration in plasma after dosing; conditions: 6 h; dosed: 2-Methyltetrahydrofuran; 40 mg/kg; iv; Male; Harlan Sprague Dawley
[3] = test system: Rat; assay: concentration in plasma after dosing; conditions: 7 min; dosed: 2-Methyltetrahydrofuran; 40 mg/kg; iv; Male; Harlan Sprague Dawley
[4] = test system: Rat; assay: concentration in plasma after dosing; conditions: 2 min; dosed: 2-Methyltetrahydrofuran; 40 mg/kg; iv; Male; Harlan Sprague Dawley
[5] = test system: Rat; assay: concentration in plasma after dosing; conditions: 6 h; dosed: 2-Methyltetrahydrofuran; 40 mg/kg; iv; Male; Harlan Sprague Dawley; remark: listed apart in the source
[6] = test system: Rat; assay: concentration in plasma after dosing; conditions: 7 min; dosed: 2-Methyltetrahydrofuran; 40 mg/kg; iv; Male; Harlan Sprague Dawley; remark: listed apart in the source
[7] = test system: Rat; assay: concentration in plasma after dosing; conditions: 0.75 h; dosed: 2-Methyltetrahydrofuran; 40 mg/kg; iv; Male; Harlan Sprague Dawley
[8] = test system: Rat; assay: concentration in brain after dosing; conditions: 6 h; dosed: Fluorotelomer alcohol 8+2; 24 mg/kg; oral; Male; Harlan Sprague Dawley
[9] = test system: Rat; assay: concentration in brain after dosing; conditions: 3 h; dosed: Fluorotelomer alcohol 8+2; 80 mg/kg; oral; Female; Harlan Sprague Dawley
[10] = test system: Rat; assay: concentration in brain after dosing; conditions: 6 h; dosed: Fluorotelomer alcohol 8+2; 80 mg/kg; oral; Female; Harlan Sprague Dawley
[11] = test system: Rat; assay: concentration in brain after dosing; conditions: 6 h; dosed: Fluorotelomer alcohol 8+2; 24 mg/kg; oral; Male; Harlan Sprague Dawley; remark: listed apart in the source
[12] = test system: Rat; assay: concentration in liver after dosing; conditions: 12 h; dosed: Fluorotelomer alcohol 8+2; 24 mg/kg; oral; Male; Harlan Sprague Dawley
[13] = test system: Rat; assay: concentration in liver after dosing; conditions: 0.5 h; dosed: Fluorotelomer alcohol 8+2; 80 mg/kg; oral; Female; Harlan Sprague Dawley
[14] = test system: Rat; assay: concentration in plasma after dosing; conditions: dosed: 678-39-7, 12 mg/kg, iv, Male, F344
[15] = test system: Rat; assay: concentration in plasma after dosing; conditions: dosed: 678-39-7, 40 mg/kg, iv, Male, F344
[16] = test system: Rat; assay: concentration in kidney after dosing; conditions: 0.5 h; dosed: Fluorotelomer alcohol 8+2; 80 mg/kg; oral; Female; Harlan Sprague Dawley
[17] = test system: Rat; assay: concentration in brain after dosing; conditions: 0.5 h; dosed: Perfluorohexanoic Acid; 80 mg/kg; oral; Male; Harlan Sprague Dawley
[18] = test system: Rat; assay: concentration in liver after dosing; conditions: 12 h; dosed: Perfluorohexanoic Acid; 80 mg/kg; oral; Male; Harlan Sprague Dawley
[19] = test system: Rat; assay: concentration in kidney after dosing; conditions: 1 h; dosed: Perfluorohexanoic Acid; 80 mg/kg; oral; Male; Harlan Sprague Dawley
[20] = test system: Rat; assay: concentration in plasma after dosing; conditions: 0.25 h; dosed: Perfluorohexanoic Acid; 40 mg/kg; iv; Male; F344
[21] = test system: Rat; assay: concentration in plasma after dosing; conditions: 1.5 h; dosed: Perfluorohexanoic Acid; 40 mg/kg; iv; Male; F344
[22] = test system: Rat; assay: concentration in plasma after dosing; conditions: dosed: Perfluorohexanoic Acid, 40 mg/kg, iv, Male, F344
[23] = test system: Rat; assay: concentration in kidney after dosing; conditions: 3 h; dosed: Perfluorohexanoic Acid; 80 mg/kg; oral; Female; Harlan Sprague Dawley
[24] = test system: Rat; assay: concentration in plasma after dosing; conditions: 0.5 h; dosed: Perfluorohexanoic Acid; 40 mg/kg; iv; Male; F344
[25] = test system: Rat; assay: concentration in liver after dosing; conditions: 6 h; dosed: Perfluorooctane Sulfonate; 2 mg/kg; oral; Female; Harlan Sprague Dawley
[26] = test system: Rat; assay: concentration in liver after dosing; conditions: 3360 h; dosed: Perfluorooctane Sulfonate; 20 mg/kg; oral; Male; Harlan Sprague Dawley
[27] = test system: Rat; assay: concentration in liver after dosing; conditions: 6 h; dosed: Perfluorooctane Sulfonate; 20 mg/kg; oral; Male; Harlan Sprague Dawley
[28] = test system: Rat; assay: concentration in liver after dosing; conditions: 1848 h; dosed: Perfluorooctane Sulfonate; 2 mg/kg; oral; Female; Harlan Sprague Dawley
[29] = test system: Rat; assay: concentration in brain after dosing; conditions: 1848 h; dosed: Perfluorooctane Sulfonate; 20 mg/kg; oral; Female; F344
[30] = test system: Rat; assay: concentration in brain after dosing; conditions: 864 h; dosed: Perfluorooctane Sulfonate; 20 mg/kg; oral; Male; Harlan Sprague Dawley
[31] = test system: Rat; assay: concentration in liver after dosing; conditions: 1848 h; dosed: Perfluorooctane Sulfonate; 2 mg/kg; oral; Female; Harlan Sprague Dawley; remark: listed apart in the source
[32] = test system: Rat; assay: concentration in liver after dosing; conditions: 3360 h; dosed: Perfluorooctane Sulfonate; 2 mg/kg; oral; Female; Harlan Sprague Dawley
[33] = test system: Rat; assay: concentration in liver after dosing; conditions: 3360 h; dosed: Perfluorooctane Sulfonate; 20 mg/kg; oral; Male; Harlan Sprague Dawley; remark: listed apart in the source
[34] = test system: Rat; assay: concentration in kidney after dosing; conditions: 864 h; dosed: Perfluorooctane Sulfonate; 20 mg/kg; oral; Female; F344
[35] = test system: Rat; assay: concentration in kidney after dosing; conditions: 24 h; dosed: Perfluorooctane Sulfonate; 2 mg/kg; oral; Female; Harlan Sprague Dawley
[36] = test system: Rat; assay: concentration in plasma after dosing; conditions: dosed: Perfluorooctane Sulfonate, 2 mg/kg, iv, Female, F344
[37] = test system: Rat; assay: concentration in kidney after dosing; conditions: 864 h; dosed: Perfluorooctane Sulfonate; 2 mg/kg; oral; Female; Harlan Sprague Dawley
[38] = test system: Rat; assay: concentration in kidney after dosing; conditions: 6 h; dosed: Perfluorooctane Sulfonate; 2 mg/kg; oral; Female; Harlan Sprague Dawley
[39] = test system: Rat; assay: concentration in plasma after dosing; conditions: 15 h; dosed: Gemfibrozil; 4.29 mg/kg; oral; Male; Sprague-Dawley
[40] = test system: Rat; assay: concentration in plasma after dosing; conditions: 0.5 h; dosed: Gemfibrozil; 50 mg/kg; oral; Male; Sprague-Dawley

CC1CCCO1 (centres undefined) [2-Methyltetrahydrofuran]
Conditions	concentration in plasma [ng/mL]
[1]	36100
[2]	16.9
[3]	48100
[4]	57400
[5]	10.8
[6]	57300
[7]	23700

O=C(O)CCC(F)(F)C(F)(F)C(F)(F)C(F)(F)C(F)(F)C(F)(F)C(F)(F)F [Fluorotelomer acid 7+3]
Conditions	concentration in brain [ng/g]	concentration in kidney [ng/g]	concentration in liver [ng/g]
[8]	179	–	–
[9]	1310	–	–
[10]	1040	–	–
[11]	305	–	–
[12]	–	–	1400
[13]	–	–	934
[16]	–	435	–

concentration in plasma [ng/mL]
Conditions	0.25 h	0.5 h	6 h	9 h
[14]	–	127	–	159
[15]	115	–	2200	–

O=C(O)C(F)(F)C(F)(F)C(F)(F)C(F)(F)C(F)(F)F [Perfluorohexanoic Acid]
Conditions	concentration in brain [ng/g]	concentration in kidney [ng/g]	concentration in liver [ng/g]	concentration in plasma [ng/mL]
[17]	2590	–	–	–
[18]	–	–	2130	–
[19]	–	86000	–	–
[20]	–	–	–	14700
[21]	–	–	–	8490
[23]	–	38000	–	–
[24]	–	–	–	8680

[22]
Conditions	concentration in plasma [ng/mL]
3 h	1450
5 min	35700

O=S(=O)([O-])C(F)(F)C(F)(F)C(F)(F)C(F)(F)C(F)(F)C(F)(F)C(F)(F)C(F)(F)F [Perfluorooctane Sulfonate]
Conditions	concentration in brain [ng/g]	concentration in kidney [ng/g]	concentration in liver [ng/g]
[25]	–	–	19800
[26]	–	–	29100
[27]	–	–	164000
[28]	–	–	12000
[29]	1910	–	–
[30]	2500	–	–
[31]	–	–	5680
[32]	–	–	4340
[33]	–	–	15700
[34]	–	38400	–
[35]	–	9700	–
[37]	–	3490	–
[38]	–	8350	–

[36]
Conditions	concentration in plasma [ng/mL]
1 h	4870
528 h	2180

Cc1ccc(C)c(OCCCC(C)(C)C(=O)O)c1 [Gemfibrozil]
Conditions	concentration in plasma [ng/mL]
[39]	131
[40]	4640

— EPA's CvTdb concentration-time database
